Assay results from US20090181889A1, “COMPOSITIONS AND METHODS FOR DETECTION AND TREATMENT OF HUMAN HERPESVIRUS (HHV)-6” (priority 2006, published 2009).

What was measured:
[1] = biological target: T1, HHV-6B U51 (Human herpesvirus 6B, UniProt P52542); format: biochemical; details: HHV-6B U51 HEK293 membranes; for % Control [35S]GTPγS binding ± SEM, U51 (+Tet): induced with 1 μg/ml tetracycline 24 h; for % Control [35S]GTPγS binding ± SEM, U51 (Unind): no tetracycline (uninduced)
[2] = tested on: human μ, δ, or κ opioid receptor; assay: [35S]GTPγS binding to control CHO cell membranes with opioid receptors; format: biochemical; details: CHO cells stably transfected with human μ, Emax obtained at opioid concentration less than 1 μM
[3] = tested on: wild-type 293 cells (HEK 293 cell membranes); assay: [35S]GTPγS binding to native (wild-type) HEK293 cell membranes; format: biochemical, human; details: binding without compound = 100%, three experiments
[4] = tested on: herpesviruses serine proteases; details: cited from earlier work
[5] = biological target: T1, HHV-6B U51; format: binding
[6] = biological target: T2, U51 (Human herpesvirus 6A, UniProt P52382); details: Fitzsimons C P, et al. 2005; cited from earlier work
T2 sequence (P52382 1-301): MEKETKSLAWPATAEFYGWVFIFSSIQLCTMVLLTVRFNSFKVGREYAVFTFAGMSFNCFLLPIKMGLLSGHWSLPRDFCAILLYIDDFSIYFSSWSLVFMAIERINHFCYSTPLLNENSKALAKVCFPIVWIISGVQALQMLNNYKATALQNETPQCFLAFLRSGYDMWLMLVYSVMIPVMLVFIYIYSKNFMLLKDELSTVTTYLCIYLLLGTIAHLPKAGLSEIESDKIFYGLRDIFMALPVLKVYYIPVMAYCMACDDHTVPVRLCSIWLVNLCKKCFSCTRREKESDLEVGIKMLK

[7] = biological target: T3, HHV-6B U51 (Human herpesvirus 6B, UniProt P52542); format: biochemical; details: HHV-6B U51 HEK293 membranes; for % Control [35S]GTPγS binding ± SEM, U51 (+Tet): induced with 1 μg/ml tetracycline 24 h; for % Control [35S]GTPγS binding ± SEM, U51 (Unind): no tetracycline (uninduced); remark: listed apart in the source
T3 sequence (P52542 whole entry, looked up): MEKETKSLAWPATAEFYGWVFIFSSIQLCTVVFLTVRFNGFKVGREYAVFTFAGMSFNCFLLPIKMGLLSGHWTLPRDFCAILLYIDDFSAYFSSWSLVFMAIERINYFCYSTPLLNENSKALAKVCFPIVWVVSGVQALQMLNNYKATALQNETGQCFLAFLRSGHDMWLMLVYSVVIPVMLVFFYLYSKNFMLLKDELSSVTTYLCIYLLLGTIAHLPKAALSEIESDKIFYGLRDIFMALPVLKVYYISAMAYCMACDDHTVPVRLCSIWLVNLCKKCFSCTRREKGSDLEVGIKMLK

[8] = biological target: T4, HHV-6 U51 (Human herpesvirus 6A, UniProt P52382); details: Beisser, et al. 1998; cited from earlier work
T4 sequence (P52382 1-301): T2 sequence (P52382 1-301)

[9] = tested on: HEK293 cells; format: cell-based, human

## C[C@@H](NC(=O)[C@@H](N)Cc1ccc(O)cc1)C(=O)NCC(=O)N(C)[C@@H](Cc1ccccc1)C(=O)NCCO [DAMGO]
[1]
  % Control [35S]GTPγS binding ± SEM, U51 (+Tet): 86 ± 6%
  % Control [35S]GTPγS binding ± SEM, U51 (Unind): 96 ± 3%
[2]
  Control Cell Emax, % Control [35S]GTPγS binding ± SEM: 216 ± 4.4%
[3]
  % Control [35S]GTPγS binding ± SEM, Native: 106 ± 4%

## CC(C)[C@H](NC(=O)[C@H](CCC(=O)O)NC(=O)[C@H](Cc1ccccc1)NC(=O)[C@@H](C)NC(=O)[C@@H](N)Cc1ccc(O)cc1)C(=O)N[C@H](C(=O)NCC(N)=O)C(C)C [Deltorphin II]
[1]
  % Control [35S]GTPγS binding ± SEM, U51 (+Tet): 91 ± 6%
  % Control [35S]GTPγS binding ± SEM, U51 (Unind): 98 ± 2%

## CN1CC[C@]23c4c5ccc(O)c4O[C@H]2[C@@H](O)C=C[C@H]3[C@H]1C5 [Morphine, morphine]
[1]
  % Control [35S]GTPγS binding ± SEM, U51 (+Tet): 91 ± 9%
  % Control [35S]GTPγS binding ± SEM, U51 (Unind): 99 ± 0.9%
[3]
  % Control [35S]GTPγS binding ± SEM, Native: 99 ± 9%

## Oc1ccc2c3c1O[C@H]1c4[nH]c5ccccc5c4C[C@@]4(O)[C@@H](C2)N(CC2CC2)CC[C@]314 [Naltrindole, naltrindole]
[1]
  % Control [35S]GTPγS binding ± SEM, U51 (+Tet): 97 ± 4%
  % Control [35S]GTPγS binding ± SEM, U51 (Unind): 98 ± 4%
[3]
  % Control [35S]GTPγS binding ± SEM, Native: 96 ± 4%

## O=S(=O)(F)Cc1ccccc1 [PMSF, phenylmethylsulphonyi fluoride]
[4]
  inhibition of herpesvirus serine proteases: weakly inhibited

## C[C@@H](NC(=O)[C@@H](N)Cc1ccc(O)cc1)C(=O)NCC(=O)N(C)[C@@H](Cc1ccccc1)C(=O)NCCO [[^3H]DAMGO]
[5]
  specific binding of radiolabelled opioid to HHV-6B U51 membranes: did not specifically bind

## CCC12CCN(CC3(O)CC3)C(Cc3ccc(O)cc31)C2(C)C (centres unmarked) [[^3H]bremazocine]
[5]
  specific binding of radiolabelled opioid to HHV-6B U51 membranes: did not specifically bind

## Oc1ccc2c3c1O[C@H]1c4[nH]c5ccccc5c4C[C@@]4(O)[C@@H](C2)N(CC2CC2)CC[C@]314 [[^3H]naltrindole]
[5]
  specific binding of radiolabelled opioid to HHV-6B U51 membranes: did not specifically bind

## CCL2: chemokine
[6]
  action at U51: agonists

## CCL11: chemokine
[6]
  action at U51: agonists

## DPDPE
[1]
  % Control [35S]GTPγS binding ± SEM, U51 (+Tet): 99 ± 2%
  % Control [35S]GTPγS binding ± SEM, U51 (Unind): 96 ± 1%
[2]
  Control Cell Emax, % Control [35S]GTPγS binding ± SEM: 254 ± 16%
[3]
  % Control [35S]GTPγS binding ± SEM, Native: 104 ± 1%

## Interleukin-8: chemokine ligand
[7]
  % Control [35S]GTPγS binding ± SEM, U51 (+Tet): 96 ± 3%
  % Control [35S]GTPγS binding ± SEM, U51 (Unind): 96 ± 2%
[3]
  % Control [35S]GTPγS binding ± SEM, Native: 101 ± 5%

## MCP-3: chemokine ligand
[7]
  % Control [35S]GTPγS binding ± SEM, U51 (+Tet): 103 ± 2%
  % Control [35S]GTPγS binding ± SEM, U51 (Unind): 109 ± 9%
[3]
  % Control [35S]GTPγS binding ± SEM, Native: 97 ± 3%

## RANTES: β-chemokine (CC-chemokine)
[7]
  % Control [35S]GTPγS binding ± SEM, U51 (+Tet): 104 ± 2%
  % Control [35S]GTPγS binding ± SEM, U51 (Unind): 111 ± 1%
[8]
  binding affinity to HHV-6 U51: nanomolar affinity
[6]
  action at U51: agonists
[3]
  % Control [35S]GTPγS binding ± SEM, Native: 101 ± 2%

## US28: human cytomegalovirus 7-transmembrane protein, expressed from plasmid as positive control
[9]
  cell fusion activity compared to cells transfected with VSV-G alone: ~3 fold

## kappa opioid receptor: rat kappa opioid receptor expression plasmid, negative control
[9]
  cell fusion activity compared to cells transfected with VSV-G alone: no effect

B1: Lymphotactin: chemokine ligand (protein)
chain: VGSEVSDKRTCVSLTTQRLPVSRIKTYTITEGSLRAVIFITKRGLKVCADPQATWVRDVVRSMDRKSNTRNNMIQTKPTGTQQSTNTAVTLTG
[7]
  % Control [35S]GTPγS binding ± SEM, U51 (+Tet): 104 ± 7%
  % Control [35S]GTPγS binding ± SEM, U51 (Unind): 99 ± 3%
[3]
  % Control [35S]GTPγS binding ± SEM, Native: 97 ± 2%
